Assay results as given in patent EP3454821B1, “MICELLES OF D-ALPHA-TOCOPHERYL POLYETHYLENE GLYCOL 1000 SUCCINATE” (Phytoceutical Limited, priority 2016, dated 2017).
Entries after “also recorded” stand apart in the source; their conditions may differ.

Assay: Dissolution of Retinol in water
Assay type: physicochemical
Conditions: without TPGS
From the text: All attempts to dissolve Retinol in water were unsuccessful except when using a micellar formulation with TPGS, as per the method described in Example 1.
Retinol. No research was undertaken on Objective 2 because Retinol is insoluble in water.

solubility in water: insoluble; also recorded: unsuccessful
Structure (SMILES): CC1=C(/C=C/C(C)=C/C=C/C(C)=C/CO)C(C)(C)CCC1 [Retinol]
